Experimental data taken from ChEMBL document CHEMBL1201862, “PubChem BioAssay data set” (2004).
Active and inactive are the calls of the source. Cut-off read from the data, not from the text of the source, for most assays here: actives have a measured EC50 and inactives only a lower limit.

Columns and labels:
[1] = microbe, parasite or virus in culture; assay type: functional; conditions: Mycobacterium tuberculosis
[2] = biological target: T1, Corticotropin-releasing factor receptor 2/Corticotropin-releasing factor-binding protein (Homo sapiens, UniProt P24387+Q13324); assay: activators of CRF receptor 2 with binding protein – uHTS hits, confirmation (AID 602473); assay type: functional; conditions: read-out: EC50_Mean
T1 sequence (Q13324 whole entry): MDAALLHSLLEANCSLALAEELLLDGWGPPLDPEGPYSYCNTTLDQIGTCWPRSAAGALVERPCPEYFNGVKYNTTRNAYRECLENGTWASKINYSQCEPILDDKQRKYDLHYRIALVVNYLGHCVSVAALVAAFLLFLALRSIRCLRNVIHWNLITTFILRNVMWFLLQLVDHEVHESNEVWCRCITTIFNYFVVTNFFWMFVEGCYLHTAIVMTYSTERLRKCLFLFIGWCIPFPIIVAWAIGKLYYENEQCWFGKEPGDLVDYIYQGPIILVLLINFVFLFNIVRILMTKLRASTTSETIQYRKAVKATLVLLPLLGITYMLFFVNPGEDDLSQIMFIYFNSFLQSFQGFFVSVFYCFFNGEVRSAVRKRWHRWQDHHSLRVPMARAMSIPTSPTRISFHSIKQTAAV
T1 sequence (P24387 whole entry): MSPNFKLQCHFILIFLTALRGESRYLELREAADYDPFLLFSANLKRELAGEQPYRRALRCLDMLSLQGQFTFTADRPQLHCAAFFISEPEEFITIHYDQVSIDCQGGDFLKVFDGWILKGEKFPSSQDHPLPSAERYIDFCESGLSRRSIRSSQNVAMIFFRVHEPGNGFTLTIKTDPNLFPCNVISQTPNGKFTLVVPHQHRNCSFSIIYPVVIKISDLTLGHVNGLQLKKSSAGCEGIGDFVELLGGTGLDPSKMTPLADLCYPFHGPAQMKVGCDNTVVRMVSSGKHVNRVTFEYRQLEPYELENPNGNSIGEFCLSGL

Nonstructural protein 1 = Nonstructural protein 1 (Influenza A virus, UniProt Q194T2); assay type: functional, Influenza A virus (A/California/07/2009(H1N1))
Nonstructural protein 1, sequence (Q194T2 whole entry): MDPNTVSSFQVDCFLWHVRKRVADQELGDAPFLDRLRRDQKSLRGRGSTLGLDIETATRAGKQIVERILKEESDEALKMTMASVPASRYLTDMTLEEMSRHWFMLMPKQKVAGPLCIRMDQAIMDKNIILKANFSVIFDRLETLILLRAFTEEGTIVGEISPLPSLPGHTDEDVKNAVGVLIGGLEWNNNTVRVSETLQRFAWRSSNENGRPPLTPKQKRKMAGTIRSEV

[3] = tested on: Streptococcus sp. 'group A'; assay: growth inhibition of control SK(-) GAS strain, dose response, counter-screen for streptokinase expression inhibitor project, luminescence, kanamycin, BacTiterGlo, confirmation (AID 1900); assay type: functional, organism-based
Streptococcus = assay: Group A Streptococcus viability loss, dose response, counter-screen for streptokinase expression inhibitor project, luminescence, BacTiterGlo (AID 1915); assay type: functional, organism-based;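 note: potency for reduction of bacterial viability or growth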
Streptokinase A = biological target: T2, Streptokinase A (Streptococcus pyogenes serotype M1, UniProt P10520); assay: S. pyogenes streptokinase expression inhibitors, potency, dose response, plasminogen activation absorbance, OD405 (AID 1914); assay type: functional, Streptococcus pyogenes M1 GAS;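 note: secreted streptokinase activity via plasminogen activation per viability signal from cell pellet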
T2 sequence (P10520 whole entry): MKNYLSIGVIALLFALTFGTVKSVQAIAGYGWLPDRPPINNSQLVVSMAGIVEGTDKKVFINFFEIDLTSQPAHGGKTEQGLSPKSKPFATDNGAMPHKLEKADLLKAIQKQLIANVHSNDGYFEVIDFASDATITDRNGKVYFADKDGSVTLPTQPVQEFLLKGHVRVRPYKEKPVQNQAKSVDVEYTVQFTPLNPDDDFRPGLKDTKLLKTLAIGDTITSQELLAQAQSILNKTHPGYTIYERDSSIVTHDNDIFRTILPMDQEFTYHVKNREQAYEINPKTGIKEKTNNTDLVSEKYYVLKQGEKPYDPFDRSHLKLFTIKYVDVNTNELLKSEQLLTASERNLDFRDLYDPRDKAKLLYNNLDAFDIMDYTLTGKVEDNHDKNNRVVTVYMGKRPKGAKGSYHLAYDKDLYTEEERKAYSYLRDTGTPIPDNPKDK

H9c2 = assay: cells; assay type: functional, cell-based; conditions: Rattus norvegicus, H9c2, Myocardium;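 note: confirmatory concentration-response retest of ultra-high-throughput screening hits for modulation of myocardial damage; cell death induced by hydrogen peroxide oxidative stress; compound pretreatment for 60 min then peroxide exposure for 2 h; potency is for protecting the cells against peroxide damage rather than for killing them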
[4] = cytotoxicity toward NIH3T3 fibroblasts, dose response, counter-screen, cell-based, ATP luminescence, mouse fibroblasts (AID 2010); assay type: functional;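 note: cells exposed to compound for about 90 hours before reading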
[5] = inhibitors of intracellular T. cruzi replication, confirmation, NIH3T3 host cells, beta-gal luminescence (AID 2044); assay type: functional, cell-based;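 note: intracellular parasites grown in NIH/3T3 mouse fibroblasts as host cells; luminescent beta-galactosidase reporter signal from transgenic T. cruzi replicating inside host cells; inhibitors lower the luminescence signal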
[6] = Luminescence Cell-Based Dose Retest to Confirm Inhibitors of Cancer Stem Cells. [Related pubchem assays (depositor defined):AID2717, AID2721]; assay type: functional; conditions: Homo sapiens
[7] = C. albicans growth with fluconazole, confirmation, fluorescence, retest (AID 2467); assay type: functional, cell-based
[8] = NIH-3T3 fibroblast cytotoxicity, dose response, cytotoxicity control, cell-based, fluorescence, Alamar Blue, secondary assay (AID 2327); assay type: functional;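 note: NIH-3T3 mouse fibroblasts cultured with fluconazole at 8 µg/mL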
Fatty acid synthase = Fatty acid synthase (Homo sapiens, UniProt P49327); assay: FAS thioesterase domain inhibitors, dose response, biochemical, kinetic fluorescence intensity (AID 624326); assay type: functional;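 note: rate of fluorescence rise from hydrolysis of a fluorogenic O-methyl fluorescein ester substrate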
Fatty acid synthase, sequence (P49327 whole entry, the tested form may be a part): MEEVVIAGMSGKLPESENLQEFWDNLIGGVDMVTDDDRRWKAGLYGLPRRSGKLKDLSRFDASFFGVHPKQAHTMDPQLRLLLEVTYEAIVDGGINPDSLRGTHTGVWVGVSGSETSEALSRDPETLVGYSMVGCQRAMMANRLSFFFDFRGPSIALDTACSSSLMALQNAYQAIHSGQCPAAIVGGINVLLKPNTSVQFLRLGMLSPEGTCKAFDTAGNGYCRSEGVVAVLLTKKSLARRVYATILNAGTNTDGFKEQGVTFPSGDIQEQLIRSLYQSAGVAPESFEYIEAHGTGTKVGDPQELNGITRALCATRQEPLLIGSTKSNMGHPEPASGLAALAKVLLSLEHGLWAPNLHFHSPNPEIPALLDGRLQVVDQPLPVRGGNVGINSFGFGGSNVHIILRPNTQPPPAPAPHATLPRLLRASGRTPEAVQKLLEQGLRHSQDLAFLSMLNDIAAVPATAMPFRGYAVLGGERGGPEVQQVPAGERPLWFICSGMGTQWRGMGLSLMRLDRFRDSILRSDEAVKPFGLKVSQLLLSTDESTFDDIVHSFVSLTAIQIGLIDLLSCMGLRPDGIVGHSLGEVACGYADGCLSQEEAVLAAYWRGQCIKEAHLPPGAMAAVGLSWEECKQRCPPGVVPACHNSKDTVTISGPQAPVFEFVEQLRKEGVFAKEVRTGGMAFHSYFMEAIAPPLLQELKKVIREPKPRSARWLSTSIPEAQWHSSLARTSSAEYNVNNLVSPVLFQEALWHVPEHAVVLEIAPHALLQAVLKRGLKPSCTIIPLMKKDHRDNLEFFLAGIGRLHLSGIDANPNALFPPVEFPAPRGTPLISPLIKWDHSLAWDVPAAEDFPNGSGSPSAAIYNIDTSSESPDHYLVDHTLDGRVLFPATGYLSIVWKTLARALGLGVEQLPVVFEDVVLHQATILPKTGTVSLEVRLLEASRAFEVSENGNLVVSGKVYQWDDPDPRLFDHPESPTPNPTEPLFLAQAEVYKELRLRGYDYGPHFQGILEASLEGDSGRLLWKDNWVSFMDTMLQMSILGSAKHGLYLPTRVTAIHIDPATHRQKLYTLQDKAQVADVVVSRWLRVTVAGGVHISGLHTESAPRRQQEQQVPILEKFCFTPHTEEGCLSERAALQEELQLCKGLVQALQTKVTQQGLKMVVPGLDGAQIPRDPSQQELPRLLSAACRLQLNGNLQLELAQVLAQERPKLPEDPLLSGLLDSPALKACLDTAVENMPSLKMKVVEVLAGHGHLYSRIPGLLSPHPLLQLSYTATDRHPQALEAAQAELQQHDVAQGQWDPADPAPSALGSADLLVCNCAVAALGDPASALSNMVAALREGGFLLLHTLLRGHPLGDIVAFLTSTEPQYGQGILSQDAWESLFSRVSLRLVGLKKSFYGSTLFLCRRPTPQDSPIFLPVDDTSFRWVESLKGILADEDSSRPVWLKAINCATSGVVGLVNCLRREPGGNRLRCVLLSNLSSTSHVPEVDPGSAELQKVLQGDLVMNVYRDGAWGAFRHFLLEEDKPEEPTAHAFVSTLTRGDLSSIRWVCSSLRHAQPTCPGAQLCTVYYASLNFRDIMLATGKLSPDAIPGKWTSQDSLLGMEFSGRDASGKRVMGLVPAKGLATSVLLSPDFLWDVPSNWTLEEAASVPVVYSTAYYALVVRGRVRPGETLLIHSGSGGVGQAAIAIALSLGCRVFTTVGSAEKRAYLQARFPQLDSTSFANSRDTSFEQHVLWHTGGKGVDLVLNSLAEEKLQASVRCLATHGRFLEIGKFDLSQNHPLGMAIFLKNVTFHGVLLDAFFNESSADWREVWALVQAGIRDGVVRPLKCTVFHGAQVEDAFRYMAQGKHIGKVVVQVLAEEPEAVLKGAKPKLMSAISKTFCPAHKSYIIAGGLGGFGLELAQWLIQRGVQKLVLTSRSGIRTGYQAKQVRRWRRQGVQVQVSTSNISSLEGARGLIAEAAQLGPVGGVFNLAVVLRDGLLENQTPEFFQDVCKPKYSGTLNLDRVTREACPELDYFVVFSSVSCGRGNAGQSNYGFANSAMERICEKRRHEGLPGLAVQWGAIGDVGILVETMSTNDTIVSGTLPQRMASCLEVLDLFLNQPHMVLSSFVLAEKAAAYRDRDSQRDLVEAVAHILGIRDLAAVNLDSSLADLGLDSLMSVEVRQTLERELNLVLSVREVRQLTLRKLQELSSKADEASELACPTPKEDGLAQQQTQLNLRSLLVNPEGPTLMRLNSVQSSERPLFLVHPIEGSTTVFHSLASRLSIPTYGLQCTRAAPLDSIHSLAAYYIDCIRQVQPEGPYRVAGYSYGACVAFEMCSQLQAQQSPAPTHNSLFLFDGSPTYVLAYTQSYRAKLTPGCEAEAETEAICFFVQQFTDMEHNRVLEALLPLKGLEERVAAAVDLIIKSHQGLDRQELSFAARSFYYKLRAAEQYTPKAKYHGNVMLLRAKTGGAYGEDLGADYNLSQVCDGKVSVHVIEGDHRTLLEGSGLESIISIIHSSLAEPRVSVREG

[9] = Luminescence Cell-Based Dose Response HTS to Identify Inhibitors of 5'UTR Stem-Loop Driven Prion Protein mRNA Translation in H4 Neuroglioblastoma Cells. [Related pubchem assays: 1827 (Project Summary), 1813 (Primary HTS)]; assay type: functional
[10] = inhibitors of firefly luciferase expression or activity, dose response, H4 neuroglioma cells, luminescence (AID 1990); assay type: functional, cell-based
[11] = inhibitors of SNCA 5'UTR-driven reporter translation, confirmation, H4 neuroglioma cells, luminescence (AID 1988); assay type: functional, cell-based
[12] = MC4R antagonists, dose response, counter-screen for LGR2 antagonist project, cell-based, plate reader, cherry pick (AID 743444); assay type: functional;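 note: transfected HEK 293 cells stimulated with alpha-MSH peptide; potency of inhibitors of the alpha-MSH evoked signal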
[13] = HepG2 cell cytotoxicity, dose response, cytotoxicity control, plate reader, cherry-pick, antagonist series (AID 743416); assay type: functional, cell-based
[14] = biological target: T3, Replicative DNA helicase DnaB (Mycobacterium tuberculosis, UniProt P9WMR3); assay: DnaB intein splicing inhibitors, dose response, biochemical, cell-free fluorescence (AID 449749); assay type: functional
T3 sequence (P9WMR3 whole entry): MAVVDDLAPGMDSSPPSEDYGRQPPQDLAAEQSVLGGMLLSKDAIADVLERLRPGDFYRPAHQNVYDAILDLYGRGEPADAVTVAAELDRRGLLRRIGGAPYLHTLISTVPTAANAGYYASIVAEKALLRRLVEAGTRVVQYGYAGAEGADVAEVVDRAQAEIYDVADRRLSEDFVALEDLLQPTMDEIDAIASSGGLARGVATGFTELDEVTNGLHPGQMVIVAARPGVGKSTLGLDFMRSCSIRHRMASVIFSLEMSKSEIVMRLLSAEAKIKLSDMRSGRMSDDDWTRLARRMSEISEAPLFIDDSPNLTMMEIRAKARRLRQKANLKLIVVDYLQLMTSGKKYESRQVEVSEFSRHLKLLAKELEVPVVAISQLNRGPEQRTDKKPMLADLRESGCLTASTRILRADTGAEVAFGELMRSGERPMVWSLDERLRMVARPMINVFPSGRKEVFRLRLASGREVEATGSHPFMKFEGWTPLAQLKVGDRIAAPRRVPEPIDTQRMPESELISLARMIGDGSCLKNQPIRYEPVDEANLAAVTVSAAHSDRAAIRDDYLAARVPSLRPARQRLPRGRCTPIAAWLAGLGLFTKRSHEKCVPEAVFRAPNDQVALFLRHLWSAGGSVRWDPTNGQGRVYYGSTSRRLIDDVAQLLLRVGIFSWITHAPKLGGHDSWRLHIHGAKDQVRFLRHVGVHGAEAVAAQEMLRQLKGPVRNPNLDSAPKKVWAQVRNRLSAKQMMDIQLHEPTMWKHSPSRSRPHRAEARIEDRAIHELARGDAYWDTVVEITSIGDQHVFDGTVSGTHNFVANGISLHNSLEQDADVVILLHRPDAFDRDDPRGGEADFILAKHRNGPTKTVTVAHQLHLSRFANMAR

Protein RecA = biological target: T4, Protein RecA (Mycobacterium tuberculosis, UniProt P9WHJ3); assay: Fluorescence Cell-Free Homogeneous Dose Retest to Identify Inhibitors of RecA-Intein Splicing Activity. [Related pubchem assays (depositor defined):AID2097, AID2223, AID489010, AID492950]; assay type: functional
T4 sequence (P9WHJ3 whole entry): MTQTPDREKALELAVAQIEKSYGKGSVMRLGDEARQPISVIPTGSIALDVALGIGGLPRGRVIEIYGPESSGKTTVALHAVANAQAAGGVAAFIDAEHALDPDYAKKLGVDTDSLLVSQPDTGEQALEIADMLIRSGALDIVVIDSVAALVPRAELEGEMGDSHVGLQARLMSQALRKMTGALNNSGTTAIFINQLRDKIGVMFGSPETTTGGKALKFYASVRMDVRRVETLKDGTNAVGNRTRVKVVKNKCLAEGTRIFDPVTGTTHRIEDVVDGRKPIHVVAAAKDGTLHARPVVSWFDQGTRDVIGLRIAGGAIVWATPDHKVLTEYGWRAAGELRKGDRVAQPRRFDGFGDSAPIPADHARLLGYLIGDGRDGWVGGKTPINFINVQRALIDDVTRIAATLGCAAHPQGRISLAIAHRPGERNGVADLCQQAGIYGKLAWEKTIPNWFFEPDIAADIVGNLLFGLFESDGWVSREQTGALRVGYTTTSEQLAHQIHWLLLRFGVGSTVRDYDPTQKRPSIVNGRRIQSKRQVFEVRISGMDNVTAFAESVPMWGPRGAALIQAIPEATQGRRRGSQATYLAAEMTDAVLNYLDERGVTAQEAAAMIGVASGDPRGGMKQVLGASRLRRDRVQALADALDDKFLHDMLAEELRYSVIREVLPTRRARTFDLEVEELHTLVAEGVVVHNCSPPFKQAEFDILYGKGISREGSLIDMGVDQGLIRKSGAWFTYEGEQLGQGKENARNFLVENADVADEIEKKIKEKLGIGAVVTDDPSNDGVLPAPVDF

CCc1noc(C)c1C(=O)Nc1nc(-c2ccc(F)cc2)c(C)s1
CC50 [1]: > 40 µM (active)

Cc1cc(-c2cccs2)c2c(N)c(C(=O)c3ccc4c(c3)OCO4)sc2n1
EC50 [2]: 7.29 µM (active)

CCCCCn1c(N)c(-c2nc3ccccc3s2)c2c([N+](=O)[O-])nn(CC)c(=O)c21
IC50 (Nonstructural protein 1): > 50 µM (active)
EC50 [3]: 6.03 µM (active)
EC50 (Streptococcus): > 150 µM (not active)
EC50 (Streptokinase A): > 150 µM (not active)

Cc1ccc(C(C(=O)NCc2ccccc2)N(Cc2ccco2)C(=O)c2snc(C(N)=O)c2N)o1 (configuration not stated)
IC50 (H9c2): > 79 µM (inactive)

Cc1ccc(NS(=O)(=O)c2ccc(C(=O)N3CCCC(C(F)(F)F)C3)cc2)cc1 (configuration not stated)
EC50 [2]: 5.17 µM (active)

CCC(c1nnnn1Cc1ccco1)N(Cc1cc2cc(C)cc(C)c2nc1O)CC1CCCO1 (configuration not stated)
IC50 (H9c2): > 79 µM (inactive)

CC(C)OC(=O)C(=O)NNc1ccccc1
EC50 [4]: < 6 µM (inconclusive)
EC50 [5]: 0.792 µM (active)
AC50 [6]: 0.731 µM (active)
EC50 [7]: > 38 µM (not active)
EC50 [8]: 1.21 µM (active)

Cc1cccc(OCCn2nc(C(=O)O)c3ccccc3c2=O)c1
IC50 (H9c2): > 79 µM (inactive)

CCCOP(=O)(OCCC)c1c([N+](=O)[O-])cc(C(F)(F)F)cc1[N+](=O)[O-]
CC50 [1]: 24.2 µM (active)

CC(OC(=O)CCc1nc(O)c2ccccc2n1)C(=O)NC1CCCC1 (configuration not stated)
IC50 (H9c2): 30.3 µM (inactive)

COc1ccc(CNC(=O)c2ccc(Cn3nc(C)c([N+](=O)[O-])c3C)o2)cc1
IC50 (H9c2): > 79 µM (inactive)

O=C(CCS(=O)(=O)c1ccccc1)Nc1nnc(C(F)(F)F)s1
EC50 [7]: 0.302 µM (active)
EC50 [8]: > 160 µM (inactive)

Cc1cc(N2C(=O)C(O)=C(C(=O)c3cc4ccccc4o3)C2c2cccs2)no1 (configuration not stated)
EC50 [7]: 1.17 µM (active)
EC50 [8]: 70.9 µM (active)

COc1ccc(CNC(=O)/C=C/c2cc([N+](=O)[O-])ccc2OC(F)F)cc1OC
IC50 (Fatty acid synthase): 3.28 µM (active)

CCOc1ccc(N2CCc3c(C)nc(SC)nc32)cc1
CC50 [1]: 34.9 µM (active)

Oc1ccc(NCc2nnc(O)c3ccccc23)cc1
IC50 (H9c2): > 79 µM (inactive)

O=C(CCc1nc(O)c2ccccc2n1)NNC(=O)c1ccccc1Cl
IC50 (H9c2): 16.2 µM (active)

CCOC(=O)c1ccc(NC(=O)Nc2ccn(C)n2)cc1
EC50 [7]: 4.84 µM (active)
EC50 [8]: > 150 µM (inconclusive)

Cc1cc(C)nc(NC(N)=Nc2ccc(CC(=O)OC(C)C)cc2)n1
EC50 [2]: 2.56 µM (active)

CCCCN(C)C(=O)Cc1c(OC)ccc2cc(Br)ccc12
CC50 [1]: > 40 µM (active)

O=C(CC(NCCN1CCOCC1)C(=O)O)Nc1cccc(Cl)c1 (configuration not stated)
EC50 [7]: > 38 µM (not active)
EC50 [8]: 86.4 µM (active)

Cc1c(C(=O)Nc2nc3ccccc3[nH]2)oc2c(Cl)cccc12
EC50 [4]: > 60 µM (not active)
EC50 [3]: 1.72 µM (active)
EC50 (Streptococcus): 8.37 µM (active)
EC50 [5]: 1.68 µM (active)
CC50 [1]: 32.4 µM (active)

CCCCN(Cc1nc(O)c2ccccc2n1)C(=O)CN1C(=O)NC2(CCCCC2)C1=O
IC50 (H9c2): 16.4 µM (active)

COC(=O)c1scc(C)c1NC(=O)c1ccccc1F
EC50 [2]: > 53 µM (inactive)

Nc1nonc1-n1nnc(C(=O)N/N=C/c2ccccn2)c1CNc1ccccc1
IC50 (H9c2): 18.1 µM (active)

O=C(Nc1cccc(/N=C/c2cc(Cl)cc(Br)c2O)c1)c1ccco1
IC50 (H9c2): 12.3 µM (active)

COc1ccccc1C(=O)NCC(=O)N/N=C/c1cc(Br)ccc1OC(=O)/C=C\c1ccco1
IC50 (H9c2): > 79 µM (inactive)
EC50 [9]: 12 µM (active)
EC50 [10]: 11.9 µM (active)
EC50 [11]: 11 µM (active)

CC1(C)CS/C(=N\Cc2ccccc2)N1C(=O)c1cccc([N+](=O)[O-])c1
EC50 [2]: 7.16 µM (active)

C[C@H](CO)N1C[C@H](C)[C@H](CN(C)C(=O)Cc2ccccc2)OCCCC[C@H](C)Oc2ccc(NC(=O)Nc3ccc(C(F)(F)F)cc3)cc2C1=O
AC50 [12]: 4.79 µM (active)
AC50 [13]: 35 µM (active)

O=C(O)c1cccc(N/N=C(\N=Nc2ccccc2)c2ccccc2)c1
IC50 (Nonstructural protein 1): 34.5 µM (active)
AC50 [6]: 2.45 µM (active)
AC50 [14]: 7.75 µM (active)
EC50 (Protein RecA): 51.1 µM (active)
